Reference: PubChem BioAssay (NCI)
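Interpolation was linear, between the two tested concentrations surrounding the appropriate level; five concentrations were tested over 48 hours in 96-well plates. Definition used: TGI = concentration required for complete inhibition of growth.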

Columns and labels:
Assay in all cases: NCI tumour cell line growth inhibition, 48 h
[1] = system: OVCAR-4 ovarian
[2] = system: K-562 leukemia
[3] = system: U251 CNS
[4] = system: ACHN renal
[5] = system: MDA-MB-231 breast
[6] = system: BT-549 breast
[7] = system: SNB-75 CNS
[8] = system: A549 NSCLC
[9] = system: M14 melanoma
[10] = system: MOLT-4 leukemia
[11] = system: HS 578T breast
[12] = system: HOP-92 NSCLC
[13] = system: SK-OV-3 ovarian
[14] = system: NCI-H522 lung
[15] = system: SF-539 CNS
[16] = system: NCI-H226 lung
[17] = system: RXF 393 renal
[18] = system: HCT-116 colon
[19] = system: P388/ADR leukemia
[20] = system: KM20L2 colon

| Structure (SMILES) | TGI [1] [µM] | TGI [2] [µM] | TGI [3] [µM] | TGI [4] [µM] | TGI [5] [µM] | TGI [6] [µM] | TGI [7] [µM] | TGI [8] [µM] | TGI [9] [µM] | TGI [10] [µM] | TGI [11] [µM] | TGI [12] [µM] | TGI [13] [µM] | TGI [14] [µM] | TGI [15] [µM] | TGI [16] [µM] | TGI [17] [µM] | TGI [18] [µM] | TGI [19] [µM] | TGI [20] [µM] |
| --- | --- | --- | --- | --- | --- | --- | --- | --- | --- | --- | --- | --- | --- | --- | --- | --- | --- | --- | --- | --- |
| Cc1cc(C)nc(NS(=O)(=O)c2ccc(Nc3c4ccccc4nc4c(C(=O)NCCCN(CCO)CCO)cccc34)cc2)n1 | > 100 | > 100 | > 100 | > 100 | 88.6 | 27.6 | 23.1 | > 100 | 99.2 | > 100 | 65.5 | > 100 | > 100 | 28.2 |  |  |  |  |  |  |
| CC1(C23CC4CC(CC(C4)C2)C3)n2c(=O)n(-c3ccccc3)c(=O)n2C1(C)C12CC3CC(CC(C3)C1)C2 (centres undefined) |  | > 100 | > 100 | > 100 | > 100 | > 100 | > 100 | > 100 | > 100 | > 100 | > 100 | > 100 | > 100 |  | > 100 | > 100 |  |  |  |  |
| Cc1[nH]c(=O)nc(N/N=C/c2ccc(Cl)cc2)c1C(=O)NC(C)(CO)CO | > 100 | > 100 | > 100 | > 100 |  | > 100 | > 100 |  | > 100 | > 100 | > 100 | > 100 | > 100 |  |  | > 100 | > 100 | > 100 |  |  |
| CCOC(=O)c1csc(NC(=O)CCN2CCCCC2)n1 | > 100 | > 100 | > 100 | > 100 | > 100 |  |  | > 100 | > 100 | > 100 |  | > 100 | > 100 |  | > 100 |  | > 100 |  |  |  |
| CCC1=CC2CN3CCc4c([nH]c5ccccc45)C(C(=O)OC)(C2)C13 (centres undefined) | 75.3 | 202 | 117 |  |  |  | 89.9 | 82.5 |  | 181 |  | 33.9 | 134 | 102 | 92.8 | 23.4 | 78.7 | 71 | 131 | 19.3 |
| CON(C)C(C#N)=C(C#N)C#N | > 10 | > 10 | > 10 | > 10 | > 10 |  | > 10 | > 10 | > 10 | > 10 | > 10 |  | > 10 | > 10 | > 10 | > 10 | > 10 | > 10 |  |  |
| CN1C2CC(=O)CC1[C@H](O)[C@@H]2O |  | > 100 | > 100 |  | > 100 | > 100 |  |  | > 100 | > 100 |  |  |  |  |  | > 100 | > 100 | > 100 |  |  |
